Legend:
[1] = tested on: CLL patients; conditions: cited from earlier work
[2] = tested on: MDA-MB-468 cells; test: FACS binding of meditopes to MDA-MB-468 cells pre-treated with cetuximab or M425; type: cell-based; conditions: with or without cetuximab or M425 pre-treatment
[3] = molecular target: pertuzumab I83E IgG; test: SPR, meditope binding to immobilized pertuzumab I83E IgG; conditions: two fold dilutions from approximately 10 um to 156 nM
Experimental: The binding of a meditope to a meditope-enabled antibody containing the I83E modification was next examined in an in vitro binding study using surface plasmon resonance (SPR) and a meditope enabled antibody pertuzumab with the I83E modification. […] Concentrations were two fold dilutions from approximately 10 um to 156 nM. […] Further optimization of the experiment will be required due to the long off rate observed.

[4] = Phase I, 46 heavily pretreated CLL patients, single agent

| Substance | objective responses [1, 4] | patients with decreased peripheral blood lymphocyte counts [1, 4] | patients with reduced enlarged lymph node size [1, 4] | MTD (maximum tolerated dose) ([1]; human, in vivo) | immunosuppression ([1]; human, in vivo) | adverse events (AEs) ([1]; majority of AEs) | binding to cells (FACS) [2] | Kd fit [3] |
| --- | --- | --- | --- | --- | --- | --- | --- | --- |
| lumiliximab: primatized anti-CD23 mAb with cynomolgus macaque variable regions and human constant regions (IgG1-κ) | no objective Complete Responses (CRs) or Partial Responses (PRs) were observed | 91% | 52% | not reached | not immunosuppressive | limited to grade 1/2 |  |  |
| C-QFDLSTRRLK-C [cQFD] |  |  |  |  |  |  | bound to EGFR positive MD-MBA-468 cells only in the presence of cetuximab | no Kd could be fit to the data |

Reference: patent publication US20180148514A1, “MULTIVALENT MEDITOPES, MEDITOPE-BINDING ANTIBODIES AND USES THEREOF” (City of Hope, priority 2014, published 2018)
